Experimental findings from US8772504B2, “Substituted benzoxazole, benzimidazole, oxazolopyridine and imidazopyridine derivatives as gamma secretase modulators” (Janssen Pharmaceuticals, Inc., priority 2009, dated 2014) are described below.

Assay [1] relates to Aβtotal. The assay is described as follows: In vivo efficacy Method 1: brain soluble Aβtotal by ELISA. Details: species or system mouse. Particulars: Table 4a, single oral dose, overnight fasted animals, sacrificed after 4 h, soluble fraction of brain homogenates. The method in brief:
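Overnight-fasted rodents or APP transgenic mice given a single oral dose in 20% Captisol or 20% hydroxypropyl β-cyclodextrin and sacrificed after 4 h. Right-hemisphere homogenate high-speed supernatant used: neutralized portion for Aβtotal, Oasis HLB-purified and concentrated eluate for Aβ42, both quantified by ELISA.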
In general terms: In an ELISA, binding on a coated surface is turned into a signal by an enzyme label.

For assay [2], the system named is Aβtotal. Briefly: Screening for γ-secretase-modulating activity, Method 1: Aβtotal sandwich ELISA on SKNBE2 cell media. Particulars: SKNBE2 cells carrying APP 695 wild type. Type of assay: cell-based. The method in brief:
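SKNBE2 cells expressing wild-type APP 695 were treated with compound for 18 hours. Aβtotal in the medium was measured by sandwich ELISA (6E10 capture, biotinylated 4G8 detection, fluorogenic peroxidase read-out). IC50 came from a 4-parameter fit of % inhibition with top/bottom fixed at 100/0 and Hill slope 1, or as averaged IC50 from % of untreated control.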

Setting [3] is: Homo sapiens, Table 3a, 18 hours, XLfit, top/bottom fixed to 100 and 0, hill slope 1.
Setting [4] is: Homo sapiens, Table 3b, non-linear regression of % of control, averaged IC50 values.
The mark [5] stands for this setting: Table 3a, 18 hours, XLfit, top/bottom fixed to 100 and 0, hill slope 1.
The mark [6] stands for this setting: Table 3b, non-linear regression of % of control, averaged IC50 values.

A word on the IC50: it is the concentration that inhibits the measured activity by half. Take `COc1nc(Nc2cccc3c2nc(-c2ccc(F)cc2)n3C)ccc1-n1cnc(C)c1` [Compound 15]: in assay [1], the “Aβtotal (% Ctrl) _Mean” value is reported as 83 % Ctrl. In addition, the IC50 in assay [2] (setting [3]) and in assay [2] (setting [4]) was above 3 µM in each case.

With `Cc1cn(-c2ccc(Nc3cccc4c3nc(-c3ccc(F)cc3)n4C)cc2F)cn1` [Compound 67], the “Aβtotal (% Ctrl) _Mean” value in assay [1] is listed as 99 % Ctrl. In addition, the IC50 in assay [2] (setting [5]) and in assay [2] (setting [6]) was above 3 µM in each case.

Consider `COc1cc(Nc2nccc3c2nc(-c2ccc(F)cc2)n3C)ccc1-n1cnc(C)n1` [Compound 92], for which the “Aβtotal (% Ctrl) _Mean” value in assay [1] was found to be 103 % Ctrl. In addition, the IC50 in assay [2] (setting [5]) and in assay [2] (setting [6]) was above 10 µM throughout.

With `COc1cc(Nc2cc(C(C)C)nc3c2nc(-c2ccc(F)cc2)n3C)ccc1-n1cnc(C)n1` [Compound 110], the 50% inhibitory concentration (IC50) in assay [2] (setting [3]) is above 3 µM; in assay [2] (setting [4]) it was 1.17 µM.

With `COc1nc(Nc2cc(F)cc3c2nc(-c2ccc(F)cc2)n3C)ccc1-n1cnc(C)c1` [Compound 115], in assay [1], the “Aβtotal (% Ctrl) _Mean” value amounted to 93 % Ctrl. Also, in assay [2] (setting [5]), the IC50 was above 10 µM.

With `COc1cc(Nc2cccc3c2nc(-c2ccc(F)cc2)n3C)ccc1-n1cnc(C)c1` [Compound 1], the “Aβtotal (% Ctrl) _Mean” value in assay [1] stood at 100 % Ctrl. Moreover, the IC50 in assay [2] (setting [3]) was above 1 µM; in assay [2] (setting [4]), 13.5 µM.

Consider `COc1cc(Nc2cccc3c2nc(-c2ccc(F)cc2)n3C)ccc1-n1cnc(C)n1` [Compound 4], for which the “Aβtotal (% Ctrl) _Mean” value in assay [1] is reported as 92 % Ctrl. Further, the IC50 in assay [2] (setting [3]) and in assay [2] (setting [4]) was above 3 µM throughout.

`COc1cc(Nc2nccc3c2nc(-c2ccc(F)cc2)n3C)ccc1-n1cnc(C)c1` [Compound 8]: the “Aβtotal (% Ctrl) _Mean” value in assay [1] is 91 % Ctrl. The half-maximal inhibitory concentration (IC50) in assay [2] (setting [3]) and in assay [2] (setting [4]) was above 3 µM throughout.

With `COc1cc(-c2nc3c(Nc4ccc(-n5cnc(C)n5)c(OC)c4)nccc3n2C)ccc1Cl` [Compound 114], the half-inhibitory concentration (IC50) in assay [2] (setting [3]) and in assay [2] (setting [4]) was above 3 µM each time.

For the compound `COc1cc(Nc2cccc3c2nc(-c2ccc(F)cc2)n3C(C)C)ccc1-n1cnc(C)n1.Cl.Cl` [Compound 75], the “Aβtotal (% Ctrl) _Mean” value in assay [1] is listed as 92 % Ctrl. Further, the IC50 in assay [2] (setting [5]) and in assay [2] (setting [6]) was above 3 µM in each case.

Take `Cc1ncn(-c2ccc(Nc3cccc4c3nc(-c3ccc(F)cc3)n4C(C)C)cc2)n1.Cl.Cl` [Compound 73]: in assay [1], the “Aβtotal (% Ctrl) _Mean” value was determined as 97 % Ctrl. The IC50 in assay [2] (setting [5]) and in assay [2] (setting [6]) was above 3 µM in each case.

On to `COc1cc(Nc2nc(C)cc3c2nc(-c2ccc(F)cc2)n3C)ccc1-n1cnc(C)n1` [Compound 164], for which the “Aβtotal (% Ctrl) _Mean” value in assay [1] worked out at 97 % Ctrl. In addition, the IC50 in assay [2] (setting [6]) is above 3 µM.

Consider `COc1cc(Nc2nccc3c2nc(-c2ccccc2C(F)(F)F)n3C)ccc1-n1cnc(C)n1` [Compound 130], for which, in assay [1], the “Aβtotal (% Ctrl) _Mean” value was 94 % Ctrl. Moreover, the IC50 in assay [2] (setting [6]) was above 3 µM.

For the compound `COc1cc(Nc2cccc3c2nc(Oc2ccccc2)n3C)ccc1-n1cnc(C)c1` [Compound 61], in assay [1], the “Aβtotal (% Ctrl) _Mean” value is given as 97 % Ctrl. For the same compound, the IC50 in assay [2] (setting [5]) and in assay [2] (setting [6]) was above 3 µM each time.

Consider `Cc1ncn(-c2ccc(Nc3cccc4c3nc(-c3ccc(F)cc3)n4C(C)C)cn2)n1` [Compound 76], for which, in assay [1], the “Aβtotal (% Ctrl) _Mean” value came to 102 % Ctrl. In addition, the IC50 was above 3 µM in assay [2] (setting [5]) and above 10 µM in assay [2] (setting [6]).

As for `CCn1c(CC2CC2)nc2c(Nc3ccc(-n4cnc(C)c4)c(OC)c3)cccc21` [Compound 36], the “Aβtotal (% Ctrl) _Mean” value in assay [1] was 95 % Ctrl. The IC50 in assay [2] (setting [5]) and in assay [2] (setting [6]) was above 3 µM in each case.
